pIC50: −log10 of the molar value. Where two headings read alike, the source gives them in different places.
How the values were obtained:
Format in all cases: biochemical
JAK3 = target: T1, JAK3 (Homo sapiens, UniProt P52333); test: Inhibition of a panel of kinases, in vitro HotSpot kinase assay: JAK3; conditions: for pIC50: 1 μM ATP, read-out: IC50 JAK3; for JAK3* IC50 relative to Btk IC50 value: fold relative to Btk IC50 value
T1 sequence (P52333 1-1124): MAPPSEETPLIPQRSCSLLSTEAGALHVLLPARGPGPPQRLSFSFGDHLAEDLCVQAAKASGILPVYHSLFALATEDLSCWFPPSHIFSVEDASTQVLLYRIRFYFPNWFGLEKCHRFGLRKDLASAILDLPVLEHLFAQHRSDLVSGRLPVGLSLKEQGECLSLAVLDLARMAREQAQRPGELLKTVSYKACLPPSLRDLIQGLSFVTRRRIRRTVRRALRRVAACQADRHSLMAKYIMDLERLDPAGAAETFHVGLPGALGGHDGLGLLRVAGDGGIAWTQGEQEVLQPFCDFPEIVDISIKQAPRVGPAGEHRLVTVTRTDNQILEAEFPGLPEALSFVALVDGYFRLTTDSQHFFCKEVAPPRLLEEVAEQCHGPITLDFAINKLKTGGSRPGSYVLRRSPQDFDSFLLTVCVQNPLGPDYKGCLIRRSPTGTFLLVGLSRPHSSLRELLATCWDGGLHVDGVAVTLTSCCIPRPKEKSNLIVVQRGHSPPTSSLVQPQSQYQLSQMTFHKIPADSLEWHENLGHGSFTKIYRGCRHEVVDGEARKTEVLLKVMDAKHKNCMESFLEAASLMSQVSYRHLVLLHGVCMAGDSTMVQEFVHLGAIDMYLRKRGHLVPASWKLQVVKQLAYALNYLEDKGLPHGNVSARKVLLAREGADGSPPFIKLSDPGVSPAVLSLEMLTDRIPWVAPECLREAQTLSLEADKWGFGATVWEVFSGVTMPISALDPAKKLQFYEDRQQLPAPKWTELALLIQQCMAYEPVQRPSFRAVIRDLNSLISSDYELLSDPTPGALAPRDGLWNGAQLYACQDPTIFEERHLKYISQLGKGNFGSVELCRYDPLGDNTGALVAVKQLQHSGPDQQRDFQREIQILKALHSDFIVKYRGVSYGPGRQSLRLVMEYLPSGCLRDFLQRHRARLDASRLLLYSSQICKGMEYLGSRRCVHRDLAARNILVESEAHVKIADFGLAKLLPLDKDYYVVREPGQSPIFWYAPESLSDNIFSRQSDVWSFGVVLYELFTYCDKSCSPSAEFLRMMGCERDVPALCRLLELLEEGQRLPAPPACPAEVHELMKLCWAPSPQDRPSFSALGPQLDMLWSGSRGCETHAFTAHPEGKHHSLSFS

EGFR = EGFR (Homo sapiens, UniProt P00533); test: Inhibition of a panel of kinases, in vitro HotSpot kinase assay: EGFR; conditions: for pIC50: 1 μM ATP; for EGFR* IC50 relative to Btk IC50 value: fold relative to Btk IC50 value
Method: (§1) The degree of inhibition of a panel of kinases is determined using the in vitro HotSpot kinase assay (purified enzymes, ^33P-ATP, an appropriate substrate and 1 μM ATP).

SRC = SRC (Homo sapiens, UniProt P12931); test: Inhibition of a panel of kinases, in vitro HotSpot kinase assay: SRC; conditions: for pIC50: 1 μM ATP; for SRC* IC50 relative to Btk IC50 value: fold relative to Btk IC50 value
Method: as §1

TEC = target: T2, TEC (Homo sapiens, UniProt P42680); test: Inhibition of a panel of kinases, in vitro HotSpot kinase assay: TEC; conditions: for pIC50: 1 μM ATP; for TEC* IC50 relative to Btk IC50 value: fold relative to Btk IC50 value
T2 sequence (P42680 1-631): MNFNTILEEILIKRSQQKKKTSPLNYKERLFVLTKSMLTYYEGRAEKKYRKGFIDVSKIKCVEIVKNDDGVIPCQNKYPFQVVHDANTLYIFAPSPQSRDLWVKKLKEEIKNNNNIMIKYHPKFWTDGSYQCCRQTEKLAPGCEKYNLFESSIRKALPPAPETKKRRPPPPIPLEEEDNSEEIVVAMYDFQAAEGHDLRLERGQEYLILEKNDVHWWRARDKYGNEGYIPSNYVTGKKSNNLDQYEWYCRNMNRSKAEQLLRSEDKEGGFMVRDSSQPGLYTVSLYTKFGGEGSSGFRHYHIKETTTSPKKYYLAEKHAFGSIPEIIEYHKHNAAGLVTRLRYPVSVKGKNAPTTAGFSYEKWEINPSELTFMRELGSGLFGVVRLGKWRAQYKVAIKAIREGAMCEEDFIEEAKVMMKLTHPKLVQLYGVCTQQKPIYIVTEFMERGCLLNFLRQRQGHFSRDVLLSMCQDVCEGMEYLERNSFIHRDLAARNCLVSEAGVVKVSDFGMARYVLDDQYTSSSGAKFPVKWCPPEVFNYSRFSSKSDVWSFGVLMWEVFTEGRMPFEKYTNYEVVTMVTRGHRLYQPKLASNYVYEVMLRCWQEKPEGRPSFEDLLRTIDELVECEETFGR
Method: as §1

Sequence of SRC (P12931 whole entry): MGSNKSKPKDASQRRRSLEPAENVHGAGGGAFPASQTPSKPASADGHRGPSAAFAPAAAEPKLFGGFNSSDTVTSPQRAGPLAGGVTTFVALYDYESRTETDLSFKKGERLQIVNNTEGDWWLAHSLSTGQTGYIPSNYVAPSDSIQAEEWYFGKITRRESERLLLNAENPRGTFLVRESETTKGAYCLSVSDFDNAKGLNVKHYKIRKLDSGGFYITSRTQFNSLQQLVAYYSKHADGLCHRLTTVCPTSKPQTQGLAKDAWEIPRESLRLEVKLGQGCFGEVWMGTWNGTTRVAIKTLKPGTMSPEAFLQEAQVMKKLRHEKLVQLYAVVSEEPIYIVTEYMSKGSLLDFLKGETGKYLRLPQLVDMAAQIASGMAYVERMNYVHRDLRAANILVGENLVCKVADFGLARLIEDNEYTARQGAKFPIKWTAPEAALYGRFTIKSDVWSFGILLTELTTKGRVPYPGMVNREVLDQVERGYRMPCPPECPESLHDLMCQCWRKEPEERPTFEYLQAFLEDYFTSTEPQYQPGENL
Sequence of EGFR (P00533 25-1210): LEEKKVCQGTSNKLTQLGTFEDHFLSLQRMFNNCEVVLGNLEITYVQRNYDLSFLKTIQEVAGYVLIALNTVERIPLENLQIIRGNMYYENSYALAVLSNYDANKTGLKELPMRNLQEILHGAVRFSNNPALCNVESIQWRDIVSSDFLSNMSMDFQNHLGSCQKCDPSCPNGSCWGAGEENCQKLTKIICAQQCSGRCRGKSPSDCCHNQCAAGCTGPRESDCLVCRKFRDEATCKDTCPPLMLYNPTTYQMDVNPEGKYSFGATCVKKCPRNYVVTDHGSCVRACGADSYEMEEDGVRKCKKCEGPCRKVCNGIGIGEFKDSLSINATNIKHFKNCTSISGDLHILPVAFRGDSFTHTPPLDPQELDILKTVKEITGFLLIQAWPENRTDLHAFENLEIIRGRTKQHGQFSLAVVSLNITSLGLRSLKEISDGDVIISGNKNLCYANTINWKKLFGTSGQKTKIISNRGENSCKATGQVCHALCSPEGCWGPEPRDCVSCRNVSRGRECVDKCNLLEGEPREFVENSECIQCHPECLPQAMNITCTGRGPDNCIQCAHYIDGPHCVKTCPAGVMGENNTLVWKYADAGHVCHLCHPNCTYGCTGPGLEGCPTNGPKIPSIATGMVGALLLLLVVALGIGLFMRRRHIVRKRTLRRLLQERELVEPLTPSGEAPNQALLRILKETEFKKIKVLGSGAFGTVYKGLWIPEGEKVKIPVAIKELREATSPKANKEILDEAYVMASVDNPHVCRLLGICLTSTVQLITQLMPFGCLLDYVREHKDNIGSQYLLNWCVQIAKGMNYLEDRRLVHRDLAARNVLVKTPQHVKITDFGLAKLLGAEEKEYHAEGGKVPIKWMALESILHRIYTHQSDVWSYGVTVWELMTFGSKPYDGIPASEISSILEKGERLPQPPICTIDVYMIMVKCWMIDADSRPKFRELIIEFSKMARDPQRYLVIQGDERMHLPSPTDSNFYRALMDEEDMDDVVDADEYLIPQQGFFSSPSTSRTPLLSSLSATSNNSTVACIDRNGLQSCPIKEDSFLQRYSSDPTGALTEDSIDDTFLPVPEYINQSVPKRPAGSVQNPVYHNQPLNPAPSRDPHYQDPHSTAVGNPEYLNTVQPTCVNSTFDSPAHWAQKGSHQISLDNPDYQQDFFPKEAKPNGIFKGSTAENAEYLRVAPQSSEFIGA

Cc1c(Nc2nc(N3CCC[C@@H](NC(=O)c4ccc(C5CC5)cc4)[C@H]3C)cnc2C(N)=O)cnn1C [Example A-191, 5-((2R,3)R-3-(4-cyclopropylbenzamido)-2-methylpiperidin-1-yl)-3-(1,5-dimethyl-1H-pyrazol-4-ylamino)pyrazine-2-carboxamide]
pIC50 (JAK3; Table 13, A compounds): < 5.00
pIC50 (EGFR; Table 13, A compounds): 5.00 to 6.00
pIC50 (SRC; Table 13, A compounds): 5.00 to 6.00
pIC50 (TEC; Table 13, A compounds): 5.00 to 6.00

C=CC(=O)N1CCC[C@@H](Nc2cnc(C(N)=O)c(Nc3ccc(C4CCN(C5CCCC5)CC4)cc3)n2)C1 [Example C-84, (R)-5-(1-acryloylpiperidin-3-ylamino)-3-(4-(1-cyclopentylpiperidin-4-yl)phenylamino)pyrazine-2-carboxamide]
pIC50 (JAK3; Table 15, C compounds): > 8.00
pIC50 (EGFR; Table 15, C compounds): ≥ 8.00
pIC50 (SRC; Table 15, C compounds): 7.00 to 8.00
pIC50 (TEC; Table 15, C compounds): ≥ 8.00

C=CC(=O)N1CC[C@@H](N(C)c2cnc(C(N)=O)c(Nc3ccc(C4CCN(C5CCCC5)CC4)cc3)n2)C1 [Example C-85, (R)-5-((1-acryloylpyrrolidin-3-yl)(methyl)amino)-3-(4-(1-cyclopentylpiperidin-4-yl)phenylamino) pyrazine-2-carboxamide]
pIC50 (JAK3; Table 15, C compounds): > 8.00
pIC50 (EGFR; Table 15, C compounds): 7.00 to 8.00
pIC50 (SRC; Table 15, C compounds): 7.00 to 8.00
pIC50 (TEC; Table 15, C compounds): ≥ 8.00

C[C@@H]1[C@H](NC(=O)c2ccc(C(C)(C)O)cc2)CCCN1c1cnc(C(N)=O)c(Nc2cnn(C)c2)n1 [Example A-200, 5-((2R,3R)-3-(4-(2-hydroxypropan-2-yl)benzamido)-2-methyl-piperidin-1-yl)-3-(1-methyl-1H-pyrazol-4-yl-amino)pyrazine-2-carboxamide]
JAK3* IC50 relative to Btk IC50 value (JAK3): 411x
EGFR* IC50 relative to Btk IC50 value (EGFR): 380x
SRC* IC50 relative to Btk IC50 value (SRC): 40x
TEC* IC50 relative to Btk IC50 value (TEC): 3x

C=CC(=O)N1CC[C@@H](N(C)c2nnc(C(N)=O)c(Nc3ccc(C(C)C)cc3)n2)C1 [Example C-41, (R)-3-((1-acryloylpyrrolidin-3-yl)(methyl)amino)-5-(4-isopropylphenylamino)-1,2,4-triazine-6-carboxamide]
pIC50 (JAK3; Table 15, C compounds): > 8.00
pIC50 (EGFR; Table 15, C compounds): ≥ 8.00
pIC50 (SRC; Table 15, C compounds): 7.00 to 8.00
pIC50 (TEC; Table 15, C compounds): ≥ 8.00

C=CC(=O)N1CCC[C@@H](N(C)c2cnc(C(N)=O)c(Nc3ccc(C(C)C)cc3)n2)C1 [Example C-42, (R)-5-((1-acryloylpiperidin-3-yl)(methyl)amino)-3-(4-isopropylphenylamino) pyrazine-2-carboxamide]
pIC50 (JAK3; Table 15, C compounds): 7.00 to 8.00
pIC50 (SRC; Table 15, C compounds): 6.00 to 7.00
pIC50 (TEC; Table 15, C compounds): ≥ 8.00

C=CC(=O)N1CCC[C@@H](N(C)c2cnc(C(N)=O)c(Nc3ccc(C4(C)CCN(C5CCCC5)CC4)cc3)n2)C1 [Example C-44, (R)-5-((1-acryloylpiperidin-3-yl)(methyl)amino)-3-(4-(1-cyclopentyl-4-methylpiperidin-4-yl)phenylamino) pyrazine-2-carboxamide]
pIC50 (JAK3; Table 15, C compounds): > 8.00
pIC50 (EGFR; Table 15, C compounds): ≥ 8.00
pIC50 (SRC; Table 15, C compounds): ≥ 8.00
pIC50 (TEC; Table 15, C compounds): ≥ 8.00

C[C@@H]1[C@H](NC(=O)c2ccc(C3CC3)cc2)CCCN1c1cnc(C(N)=O)c(Nc2cnn(C(F)F)c2)n1 [Example A-198, 5-[(2R,3R)-3-(4-cyclopropylbenzamido)-2-methylpiperidin-1-yl]-3-{[1-(difluoromethyl)-1H-pyrazol-4-yl]amino}pyrazine-2-carboxamide]
JAK3* IC50 relative to Btk IC50 value (JAK3): 1276x
EGFR* IC50 relative to Btk IC50 value (EGFR): 1276x
SRC* IC50 relative to Btk IC50 value (SRC): 69x
TEC* IC50 relative to Btk IC50 value (TEC): 3x

C[C@@H]1[C@H](NC(=O)N(C)C)CCCN1c1cnc(C(N)=O)c(Nc2ccc(N3CCN(C)CC3)cc2)n1 [Example A-100, 5-[(2R,3R)-3-[(dimethylcarbamoyl)amino]-2-methylpiperidin-1-yl]-3-{[4-(4-methylpiperazin-1-yl)phenyl]amino}pyrazine-2-carboxamide]
pIC50 (JAK3; Table 13, A compounds): 6.00 to 7.00
pIC50 (EGFR; Table 13, A compounds): 6.00 to 7.00
pIC50 (SRC; Table 13, A compounds): 7.00 to 8.00
pIC50 (TEC; Table 13, A compounds): 6.00 to 7.00

C=CC(=O)N1CCC[C@@H](Nc2nnc(C(N)=O)c(Nc3ccc(C4CCN(C(=O)CC)CC4)cc3)n2)C1 [Example C-57, (R)-3-(1-acryloylpiperidin-3-ylamino)-5-(4-(1-propionylpiperidin-4-yl)phenylamino)-1,2,4-triazine-6-carboxamide]
pIC50 (JAK3; Table 15, C compounds): > 8.00
pIC50 (EGFR; Table 15, C compounds): ≥ 8.00
pIC50 (SRC; Table 15, C compounds): 7.00 to 8.00
pIC50 (TEC; Table 15, C compounds): ≥ 8.00

C[C@@H]1[C@H](NC(=O)c2cc3c(n2C)CC(C)(C)C3)CCCN1c1cnc(C(N)=O)c(Nc2cnn(C)c2)n1 [Example A-193, N-((2R,3R)-1-(5-carbamoyl-6-(1-methyl-1H-pyrazol-4-ylamino)pyrazin-2-yl)-2-methylpiperidin-3-yl)-1,5,5-trimethyl-1,4,5,6-tetrahydrocyclo-penta[b]pyrrole-2-carboxamide]
pIC50 (JAK3; Table 13, A compounds): 6.00 to 7.00
pIC50 (EGFR; Table 13, A compounds): 6.00 to 7.00
pIC50 (SRC; Table 13, A compounds): 6.00 to 7.00
pIC50 (TEC; Table 13, A compounds): 7.00 to 8.00

C=CC(=O)N1CCC[C@@H](Nc2nnc(C(N)=O)c(Nc3ccc(C(C)(C)C)cc3)n2)C1 [Example C-40, (R)-3-(1-acryloylpiperidin-3-ylamino)-5-(4-tert-butylphenylamino)-1,2,4-triazine-6-carboxamide]
pIC50 (JAK3; Table 15, C compounds): > 8.00
pIC50 (EGFR; Table 15, C compounds): ≥ 8.00
pIC50 (TEC; Table 15, C compounds): ≥ 8.00

C[C@@H]1[C@H](NC(=O)c2ccc(C3CC3)cc2)CCCN1c1cnc(C(N)=O)c(Nc2cnn(C3CC3)c2)n1 [Example A-205, 3-[(1-cyclopropyl-1H-pyrazol-4-yl)amino]-5-[(2R,3R)-3-(4-cyclopropylbenzamido)-2-methylpiperidin-1-yl]pyrazine-2-carboxamide]
JAK3* IC50 relative to Btk IC50 value (JAK3): 4032x
EGFR* IC50 relative to Btk IC50 value (EGFR): 730x
SRC* IC50 relative to Btk IC50 value (SRC): 40x
TEC* IC50 relative to Btk IC50 value (TEC): 3x

C[C@@H]1[C@H](NC(=O)N(C)C)CCCN1c1cnc(C(N)=O)c(Nc2ccc(C(=O)N3CCN(C)CC3)cc2)n1 [Example A-98, 5-[(2R,3R)-3-[(dimethylcarbamoyl)amino]-2-methylpiperidin-1-yl]-3-{[4-(4-methylpiperazine-1-carbonyl)phenyl]amino}pyrazine-2-carboxamide]
pIC50 (JAK3; Table 13, A compounds): 5.00 to 6.00
pIC50 (EGFR; Table 13, A compounds): 5.00 to 6.00
pIC50 (SRC; Table 13, A compounds): 6.00 to 7.00
pIC50 (TEC; Table 13, A compounds): 6.00 to 7.00

CN1CCN(c2ccc(Nc3nc(N4CCC[C@@H](n5ccc6cc(C7CC7)ccc6c5=O)C4)cnc3C(N)=O)cc2)CC1 [Example A-99, 5-[(3R)-3-(6-cyclo-propyl-1-oxo-1,2-dihydroisoquinolin-2-yl)piperidin-1-yl]-3-{[4-(4-methylpiperazin-1-yl)phenyl]amino}pyrazine-2-carboxamide]
pIC50 (JAK3; Table 13, A compounds): 5.00 to 6.00
pIC50 (EGFR; Table 13, A compounds): < 5.00
pIC50 (SRC; Table 13, A compounds): 6.00 to 7.00
pIC50 (TEC; Table 13, A compounds): 7.00 to 8.00

Cn1cc(Nc2nc(N3CCC[C@@H](NC(=O)c4ccc(C5CC5)cc4)C3)nnc2C(N)=O)cn1 [Example A-202, 3-[(3R)-3-(4-cyclopropylbenzamido)piper-idin-1-yl]-5-[(1-methyl-1H-pyrazol-4-yl)amino]-1,2,4-triazine-6-carboxamide]
JAK3* IC50 relative to Btk IC50 value (JAK3): 631x
EGFR* IC50 relative to Btk IC50 value (EGFR): 5208x
SRC* IC50 relative to Btk IC50 value (SRC): 159x
TEC* IC50 relative to Btk IC50 value (TEC): 5x

Reference: patent US20210070748A1, “INHIBITORS OF BRUTONS TYROSINE KINASE” (Pharmacyclics LLC, priority 2015, published 2021)
